In patent publication US10745382B2 (BRISTOL-MYERS SQUIBB COMPANY, priority 2015, dated 2020) one finds IC50 data, which are given here for 15 compounds.

pIC50: −log10 of the molar value.

This test deals with T1, PD-1/PD-L1 (Homo sapiens, UniProt Q9NZQ7).
T1 construct: made in house; host or cells: HEK293T
Put plainly: PD-1/PD-L1 Homogenous Time-Resolved Fluorescence (HTRF) binding assay. The note with it: PD-L1-His 10 nM, PD-1-Ig 20 nM; value given as range class; read-out: Range or IC50. The protocol: The ability of the compounds of formula (I) to bind to PD-L1 was investigated using a PD-1/PD-L1 Homogenous Time-Resolved Fluorescence (HTRF) binding assay.
Homogenous Time-Resolved Fluorescence (HTRF) Binding Assay.
All binding studies were performed in an HTRF assay buffer consisting of dPBS supplemented with 0.1% […] bovine serum albumin and 0.05% (v/v) Tween-20. […] HTRF detection was achieved using europium crypate-labeled anti-Ig (1 nM final) and allophycocyanin (APC) labeled anti-His (20 nM final). Antibodies were diluted in HTRF detection buffer and 5 μl was dispensed on top of the binding reaction. […] Additional binding assays were established between the human proteins PD-1-Ig/PD-L2-His (20 & 5 nM, respectively) and CD80-His/PD-L1-Ig (100 & 10 nM, respectively). […]

T1 sequence (Q9NZQ7 with tags, fused parts or gaps): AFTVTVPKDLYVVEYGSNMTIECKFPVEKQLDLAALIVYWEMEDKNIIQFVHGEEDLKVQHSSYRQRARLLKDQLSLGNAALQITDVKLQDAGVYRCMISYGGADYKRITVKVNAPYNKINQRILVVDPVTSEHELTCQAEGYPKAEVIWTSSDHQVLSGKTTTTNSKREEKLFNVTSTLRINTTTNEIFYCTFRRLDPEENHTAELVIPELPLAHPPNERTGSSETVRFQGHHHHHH

`Cc1c(COc2cc(OCc3cncc(C#N)c3)c(CN[C@@](C)(CO)C(=O)O)cc2Cl)cccc1-c1cccc(OCCC(=O)N2CC[C@@H](O)C2)c1` [Example 1010, (S)-2-((5-chloro-2-((5-cyanopyridin-3-yl)methoxy)-4-((3′-(3-((R)-3-hydroxypyrrolidin-1-yl)-3-oxopropoxy)-2-methyl-[1,1′-biphenyl]-3-yl)methoxy)benzyl)amino)-3-hydroxy-2-methylpropanoic Acid]: the pIC50 is 8.00 to 9.68.

For the compound `Cc1c(COc2cc(OCc3cncc(C#N)c3)c(CN3CCCC[C@H]3C(=O)O)cc2Cl)cccc1-c1cccc(OCCC(=O)N2CC[C@@H](O)C2)c1` [Example 1011, (S)-1-(5-chloro-2-((5-cyanopyridin-3-yl)methoxy)-4-((3′-(3-((R)-3-hydroxypyrrolidin-1-yl)-3-oxopropoxy)-2-methyl-[1,1′-biphenyl]-3-yl)methoxy)benzyl)piperidine-2-carboxylic Acid], the pIC50 is 5.70 to 7.00. Under `Cc1c(COc2cc(OCc3cncc(C#N)c3)c(CN3CC[C@H]3C(=O)O)cc2Cl)cccc1-c1cccc(OCCC(=O)N2CC[C@@H](O)C2)c1` [Example 1012, (S)-1-(5-chloro-2-((5-cyanopyridin-3-yl)methoxy)-4-((3′-(3-((R)-3-hydroxypyrrolidin-1-yl)-3-oxopropoxy)-2-methyl-[1,1′-biphenyl]-3-yl)methoxy)benzyl)azetidine-2-carboxylic Acid] stands 8.00 to 9.68; under `Cc1c(COc2cc(OCc3cncc(C#N)c3)c(CN3CCCC[C@H]3C(=O)O)cc2Cl)cccc1-c1cccc(OCCCN2CC[C@@H](O)C2)c1` [Example 1013, (S)-1-(5-chloro-2-((5-cyanopyridin-3-yl)methoxy)-4-((3′-(3-((R)-3-hydroxypyrrolidin-1-yl)propoxy)-2-methyl-[1,1′-biphenyl]-3-yl)methoxy)benzyl)piperidine-2-carboxylic Acid], 8.00 to 9.68; under `Cc1c(COc2cc(OCc3cncc(C#N)c3)c(CNC[C@@H](O)CC(=O)O)cc2Cl)cccc1-c1cccc(OCCCN2CC[C@@H](O)C2)c1` [Example 1014, (S)-4-((5-chloro-2-((5-cyanopyridin-3-yl)methoxy)-4-((3′-(3-((R)-3-hydroxypyrrolidin-1-yl)propoxy)-2-methyl-[1,1′-biphenyl]-3-yl)methoxy)benzyl)amino)-3-hydroxybutanoic Acid], 8.00 to 9.68. Under `CC(=O)NCCNCc1cc(Cl)c(OCc2cccc(-c3cccc(OCCCN4CC[C@@H](O)C4)c3)c2C)cc1OCc1cncc(C#N)c1` [Example 1015, (R)—N-(2-((5-chloro-2-((5-cyanopyridin-3-yl)methoxy)-4-((3′-(3-(3-hydroxypyrrolidin-1-yl)propoxy)-2-methyl-[1,1′-biphenyl]-3-yl)methoxy)benzyl)amino)ethyl)acetamide] stands 8.00 to 9.68; under `Cc1c(COc2cc(OCc3cncc(C#N)c3)c(CN[C@H](CO)C(=O)O)cc2Cl)cccc1-c1cccc(OCCCN2CC[C@@H](O)C2)c1` [Example 1016, (R)-2-((5-chloro-2-((5-cyanopyridin-3-yl)methoxy)-4-((3′-(3-((R)-3-hydroxypyrrolidin-1-yl)propoxy)-2-methyl-[1,1′-biphenyl]-3-yl)methoxy)benzyl)amino)-3-hydroxypropanoic Acid], 8.00 to 9.68. Under `Cc1c(COc2cc(OCc3cncc(C#N)c3)c(CN[C@@](C)(CO)C(=O)O)cc2Cl)cccc1-c1cccc(OCCCN2CC[C@@H](O)C2)c1` [Example 1017, (S)-2-((5-chloro-2-((5-cyanopyridin-3-yl)methoxy)-4-((3′-(3-((R)-3-hydroxypyrrolidin-1-yl)propoxy)-2-methyl-[1,1′-biphenyl]-3-yl)methoxy)benzyl)amino)-3-hydroxy-2-methylpropanoic Acid] stands 8.00 to 9.68; under `Cc1c(COc2cc(OCc3cncc(C#N)c3)c(CN3CCCC[C@H]3C(=O)O)cc2Cl)cccc1-c1cccc(OCCCN2CCC[C@@H](O)C2)c1` [Example 1018, (S)-1-(5-chloro-2-((5-cyanopyridin-3-yl)methoxy)-4-((3′-(3-((R)-3-hydroxypiperidin-1-yl)propoxy)-2-methyl-[1,1′-biphenyl]-3-yl)methoxy)benzyl)piperidine-2-carboxylic Acid], 8.00 to 9.68; under `Cc1c(COc2cc(OCc3cncc(C#N)c3)c(CN3CCCC[C@H]3C(=O)O)cc2Cl)cccc1-c1cccc(OCCCN2CCC[C@H](O)C2)c1` [Example 1019, (S)-1-(5-chloro-2-((5-cyanopyridin-3-yl)methoxy)-4-((3′-(3-((S)-3-hydroxypiperidin-1-yl)propoxy)-2-methyl-[1,1′-biphenyl]-3-yl)methoxy)benzyl)piperidine-2-carboxylic Acid], 8.00 to 9.68. For `C=CC(=O)NCCCOc1cccc(-c2cccc(COc3cc(OCc4cncc(C#N)c4)c(CN4CCCC[C@H]4C(=O)O)cc3Cl)c2C)c1` [Example 1020, (S)-1-(4-((3′-(3-acrylamidopropoxy)-2-methyl-[1,1′-biphenyl]-3-yl)methoxy)-5-chloro-2-((5-cyanopyridin-3-yl)methoxy)benzyl)piperidine-2-carboxylic Acid], the pIC50 was 7.00 to 8.00. Under `C=CC(=O)NCCCOc1cccc(-c2cccc(COc3cc(OCc4cncc(C#N)c4)c(CN[C@H](CO)C(=O)O)cc3Cl)c2C)c1` [Example 1021, (R)-2-((4-((3′-(3-acrylamidopropoxy)-2-methyl-[1,1′-biphenyl]-3-yl)methoxy)-5-chloro-2-((5-cyanopyridin-3-yl)methoxy)benzyl)amino)-3-hydroxypropanoic Acid] stands 8.00 to 9.68; under `Cc1c(COc2cc(OCc3cncc(S(C)(=O)=O)c3)c(CN3CCCC[C@H]3C(=O)O)cc2Cl)cccc1-c1cccc(OCCCN2CC[C@@H](O)C2)c1` [Example 1022, (S)-1-(5-chloro-4-((3′-(3-((R)-3-hydroxypyrrolidin-1-yl)propoxy)-2-methyl-[1,1′-biphenyl]-3-yl)methoxy)-2-((5-(methylsulfonyl)pyridin-3-yl)methoxy)benzyl)piperidine-2-carboxylic Acid], 8.00 to 9.68. With `Cc1c(COc2cc(OCc3cncc(S(C)(=O)=O)c3)c(CN[C@H](CO)C(=O)O)cc2Cl)cccc1-c1cccc(OCCCN2CC[C@@H](O)C2)c1` [Example 1023, (R)-2-((5-chloro-4-((3′-(3-((R)-3-hydroxypyrrolidin-1-yl)propoxy)-2-methyl-[1,1′-biphenyl]-3-yl)methoxy)-2-((5-(methylsulfonyl)pyridin-3-yl)methoxy)benzyl)amino)-3-hydroxypropanoic Acid], the pIC50 is 8.00 to 9.68. Under `Cc1c(COc2cc(OCc3cncc(S(C)(=O)=O)c3)c(CN[C@@](C)(CO)C(=O)O)cc2Cl)cccc1-c1cccc(OCCCN2CC[C@@H](O)C2)c1` [Example 1024, (S)-2-((5-chloro-4-((3′-(3-((R)-3-hydroxypyrrolidin-1-yl)propoxy)-2-methyl-[1,1′-biphenyl]-3-yl)methoxy)-2-((5-(methylsulfonyl)pyridin-3-yl)methoxy)benzyl)amino)-3-hydroxy-2-methylpropanoic Acid] stands 8.00 to 9.68.
